# Assay results published in PMC3121703, “Inhibitory activity of 9-phenylcyclohepta[d]pyrimidinedione derivatives against different strains of HIV-1 as non-nucleoside reverse transcriptase inhibitors” (Virology Journal, 2011).
# Like-named read-outs stand apart in the source and are kept apart here.
# Assays:
# [1] = system: HIV-1 SF33; test: HIV-1 inhibition assay, TZM-bl cells, luciferase; format: cell-based; settings: for IC50: Human immunodeficiency virus 1
# Protocol: (§1) The inhibitory activity of BmPCP, APCP, BPCP and EPCP on infection by laboratory-adapted HIV-1 strains was tested in TZM-bl cells, MT4 cells or PBMCs, respectively, as previously described. TZM-bl cells were seeded at 10^4/well and cultured in a 96-well tissue culture plate overnight, followed by addition of 200 TCID50 (50% Tissue Culture Infective Dose) of HIV-1 virus. After incubation at 37°C for 2 hrs, BmPCP at graded concentrations was added. After further incubation at 37°C for 48 hrs, the luciferase activity was measured using a luciferase assay kit (Promega Corp.) according to the manufacturer's instructions. MT4 cells (4 × 10^4/well) and PBMCs (1 × 10^5/well) were infected by addition of 200 TCID50 of HIV-1 virus, followed by incubation for 2 hrs at 37°C before addition of BmPCP at serial dilutions. After further incubation at 37°C for 4 days (for MT4 cells) or 7 days (for PBMCs), HIV-1 p24 was measured using a commercial enzyme-linked immunosorbent assay (ELISA) kit (Vironostika HIV-1 Microelisa system; BioMérieux; Marcy l'Etoile, France). The inhibitory activity of BmPCP on infection by primary HIV-1 isolates was also tested in PBMCs as described above. The percent of inhibition and the IC50 were calculated as previously described.
# [2] = system: HIV-1 SF33; test: HIV-1 inhibition assay, MT4 cells, p24 ELISA; format: cell-based; settings: for IC50: Human immunodeficiency virus 1
# Protocol: as §1
# [3] = XTT cytotoxicity assay; format: cell-based; settings: human
# Protocol: (§2) XTT assay was used to test the cytotoxicity of BmPCP on MT4 cells, human PBMCs (non-stimulated) and TZM-bl cells.
# (§3) An XTT assay, as previously described, was used for assessing the cytotoxicity of BmPCP to the cells tested for anti-HIV-1 activity. Briefly, BmPCP at graded concentrations was added to MT4 cells, PBMCs, and TZM-bl cells at 4 × 10^4, 1 × 10^5 and 1 × 10^4 cells per well, respectively, followed by an incubation at 37°C for 3 days. Ten microliters of CCK-8 reagent was added to the cells. After incubation at 37°C, for 4 h to allow color development of the XTT formazan product, the absorbance of each well was then read at 450 nm in a Victor2 1420 Multilabel Counter (Wallace-PerkinElmer Life and Analytical Sciences Inc., Boston, MA). The percent of cytotoxicity and CC50 were calculated as previously described.
# [4] = XTT cytotoxicity assay, summary over cells; format: cell-based; settings: human, human PBMCs (non-stimulated) and TZM-bl cells, MT4, PBMCs and TZM-bl cells, read-out: CC50, range
# Protocol: as §2, §3
# [5] = system: HIV-1 AH968; test: Primary HIV-1 isolate inhibition in PBMCs; format: cell-based; settings: primary isolate AH968, subtype B', R5, PBMCs; for IC50: Human immunodeficiency virus 1, PBMC
# Protocol: (§4) HIV-1CRF07_BC and B' (Thailand B, a kind variant of subtype B) are two epidemic strains in China. Furthermore, to verify the antiviral activity on China clinical isolates, CRF07_BC and B' were chosen.
# as §1
# [6] = system: HIV-1 XJ6291; test: Primary HIV-1 isolate inhibition in PBMCs; format: cell-based; settings: for IC50: Human immunodeficiency virus 1, PBMC
# Protocol: as §4, §1
# [7] = system: HIV-1 XJ257; test: Primary HIV-1 isolate inhibition in PBMCs; format: cell-based; settings: primary isolate XJ257, subtype B'/C, R5, PBMCs; for IC50: Human immunodeficiency virus 1, PBMC
# Protocol: as §4, §1
# [8] = system: HIV-1 AH259; test: Primary HIV-1 isolate inhibition in PBMCs; format: cell-based; settings: primary isolate AH259, subtype B', R5, PBMCs; for IC50: Human immunodeficiency virus 1, PBMC
# Protocol: as §4, §1
# [9] = system: HIV-1 XJ0793; test: Primary HIV-1 isolate inhibition in PBMCs; format: cell-based; settings: primary isolate XJ0793, subtype B'/C, R5, PBMCs; for IC50: Human immunodeficiency virus 1, PBMC
# Protocol: as §4, §1
# [10] = system: HIV-1 AH104; test: Primary HIV-1 isolate inhibition in PBMCs; format: cell-based; settings: Human immunodeficiency virus 1, PBMC; primary isolate AH104, subtype B', X4/R5, PBMCs
# Protocol: as §4, §1
# [11] = target: HIV-1 reverse transcriptase (Human immunodeficiency virus type 1 group M subtype B, UniProt P04585); test: ELISA RT assay for inhibition of HIV-1 reverse transcriptase activity
# From the text: Oligo(dT) 15 was immobilized via its 5'-terminal phosphate to Covalink-NH microtiter plates. The biotin-dUTP was incorporated by reverse transcriptase. The products were detected and quantified using a colorimetric strep- tavidin-alkaline phosphatase reporter system.
# Briefly, Oligo(dT) 15 was immobilized via its 5'-terminal phosphate to CovaLink NH microtiter plates. The biotin-dUTP was incorporated by reverse transcriptase. The products were detected and quantified using a colorimetric streptavidin alkaline phosphatase reporter system.
# [12] = system: HIV-1 1617-1; test: microbe, parasite or virus in culture; format: cell-based
# Protocol: We tested the antiviral activity of BmPCP in three cells including peripheral blood mononuclear cells (PBMCs), TZM-b1 and MT4 cells by using HIV-1SF33 and HIV-1 1617-1, a variant bearing K70G, 184V, 75I, 77L, I16Y and I51M mutations, which are resistant to NRTIs (e.g., d4T, DDI and AZT).
# as §1
# [13] = system: HIV-1; test: HIV-1 inhibition assays, summary over strains and cells; format: cell-based; settings: broad spectrum of HIV-1 strains incl. Chinese clinical isolates
# Protocol: as §1
# [14] = system: HIV-1 SF33; test: HIV-1 inhibition assay, PBMCs, p24 ELISA; format: cell-based; settings: for IC50: Human immunodeficiency virus 1, PBMC
# Protocol: as §1
# [15] = system: HIV-1SF33; test: Time-of-addition assay; format: cell-based; settings: for Antiviral activity in time-of-addition assay: added eight hours post-infection, BmPCP 13.3 μM, NVP 5 μM
# Protocol: Figure 2 Time-of-addition assay of compounds. TZM-bl cells were infected with HIV-1SF33 at 200 TCID50.
# MT4 cells were seeded at 10^4/well and cultured in a 96-well tissue culture plate overnight, followed by addition of 200 TCID50 of HIV-1SF33. […] HIV-1 p24 was measured using a commercial enzyme-linked immunosorbent assay (ELISA) kit (Vironostika HIV-1 Microelisa system; BioMérieux; Marcy l'Etoile, France).
# [16] = system: MT4 cells; test: XTT cytotoxicity assay; format: cell-based
# Protocol: as §2, §3
# [17] = system: TZM-bl cells; test: XTT cytotoxicity assay; format: cell-based
# Protocol: as §2, §3
# [18] = Human immunodeficiency virus 1, MT4
# [19] = Human immunodeficiency virus 1, PBMC
# [20] = Human immunodeficiency virus 1, TZM-bl
Compound,IC50 [1],IC50 [2],SI (Selectivity index = CC50/IC50) [1],SI (Selectivity index = CC50/IC50) [2],CC50 at 3 days ([3]; MT4 cells),CC50 at 3 days ([3]; TZM-bl cells),IC50 [5],IC50 [7],IC50 [8],IC50 [9],IC50 [10],"IC50 [12, 18]","IC50 [12, 19]","IC50 [12, 20]",IC50 [14],Antiviral activity in time-of-addition assay [15],further results
O=c1[nH]c(=O)n(COCc2ccccc2)c2c1CCCCC2c1ccccc1 (stereo not drawn) [BmPCP],0.34 µM,1.96 µM,266,84,90.3 µM,129 µM,0.44 ± 0.17 µM,0.53 ± 0.07 µM,0.32 ± 0.15 µM,0.25 ± 0.03 µM,0.59 ± 0.34 µM,1.47 ± 0.43 µM,1.76 ± 0.23 µM,1.45 ± 0.21 µM,1.72 ± 0.37 µM,demonstrated antiviral activity,"CC50 at 3 days [4]: 90 to 165 µM; SI (Selectivity index = CC50/IC50) [5]: 205; IC50 [6]: 0.57 ± 0.02 µM; SI (Selectivity index = CC50/IC50) ([6]; primary isolate XJ6291, subtype B'/C, R5, PBMCs): 158; SI (Selectivity index = CC50/IC50) [7]: 170; SI (Selectivity index = CC50/IC50) [8]: 282; SI (Selectivity index = CC50/IC50) [9]: 361; IC50 [11]: 1.51 µM; SI (Selectivity index = CC50/IC50) ([12]; 1617-1/PBMCs): 65; SI (Selectivity index = CC50/IC50) ([12]; 1617-1/TZM-bl): 62; IC50, level over HIV-1 strains [13]: low μM levels; SI (Selectivity index = CC50/IC50) [14]: 67; CC50 [16]: 165 µM; CC50 [17]: 90.3 µM; CC90 at 3 days ([3]; MT4 cells): 383 ± 53.5 µM; CC50 at 3 days ([3]; PBMCs (non-stimulated), PBMC): 114 ± 9.38 µM; CC90 at 3 days ([3]; PBMCs (non-stimulated), PBMC): 229 ± 6.4 µM; CC90 at 3 days ([3]; TZM-bl cells): 208 ± 8.69 µM"
CCOCn1c2c(c(=O)[nH]c1=O)CCCCC2c1ccccc1 (stereo not drawn) [EPCP],1.6 µM,7.5 µM,13.75,3.9,29.3 µM,22 µM,–,–,–,–,–,–,–,–,–,–,–
"Cc1ccnc2c1NC(=O)c1cccnc1N2C1CC1 [NVP, nevirapine, reference compound]",0.19 ± 0.02 µM,0.65 ± 0.23 µM,–,–,–,–,0.058 ± 0.06 µM,0.211 ± 0.12 µM,0.007 ± 0.001 µM,0.079 ± 0.097 µM,0.007 ± 0.003 µM,0.44 ± 0.12 µM,0.57 ± 0.08 µM,0.16 ± 0.1 µM,0.69 ± 0.07 µM,demonstrated antiviral activity,"IC50 ([6]; primary isolate XJ6291, subtype B'/C, R5, PBMCs, read-out: IC50): 0.186 ± 0.224 µM"
Enfuvirtide [T20],–,–,–,–,–,–,–,–,–,–,–,–,–,–,–,–,"Inhibitory activity in time-of-addition assay ([15]; added one hour after viral infection, T-20 5 μM): no inhibitory activity"

# Continued, in another order:
IC50 [1],IC50 [2],Compound,SI (Selectivity index = CC50/IC50) [1],SI (Selectivity index = CC50/IC50) [2],CC50 at 3 days ([3]; MT4 cells),CC50 at 3 days ([3]; TZM-bl cells),IC50 [5],IC50 [7],IC50 [8],IC50 [9],IC50 [10],"IC50 [12, 18]","IC50 [12, 19]","IC50 [12, 20]",IC50 [14],Antiviral activity in time-of-addition assay [15],further results
1.3 µM,28.6 µM,C=CCn1c2c(c(=O)[nH]c1=O)CCCCC2c1ccccc1 (stereo not drawn) [APCP],38.46,2.17,62 µM,50 µM,–,–,–,–,–,–,–,–,–,–,–
9 µM,115 µM,O=c1[nH]c(=O)n(Cc2ccccc2)c2c1CCCCC2c1ccccc1 (stereo not drawn) [BPCP],20,1.15,132 µM,180 µM,–,–,–,–,–,–,–,–,–,–,–
